# Data as given in EP3046573B1, “AMYLIN ANALOGUES” (Zealand Pharma A/S, priority 2013, dated 2015).
# Like-named read-outs stand apart in the source and are kept apart here. Numbered stars: 1 amine (or outer) side, 2 acyl side, 3 side chain; on linkers, the order of the positions; unused ones are H or OH. Bridge positions count the residues as written; N and C are the ends. Square brackets hold non-standard residues; d marks the D form. Peptide text beside a SMILES is read from it. * marks the point of attachment. C20 diacid = O=C(O)CCCCCCCCCCCCCCCCCCC(=O)*; γGlu = O=C(O)[C@H](CCC(=O)[*:2])N[*:1]; NMeI = CC[C@H](C)[C@H](NC)C(=O)O; hArg = N=C(N)NCCCC[C@H](N)C(=O)O; Sar = CNCC(=O)O
# Assays:
# [1] = target: T1, human calcitonin receptor (hCTR2) (Homo sapiens, UniProt P30988); assay: hCTR2 assay: induction of cAMP (AlphaScreen cAMP Assay kit) in COS7 cells expressing hCTR2; type: cell-based
# T1 construct: expressed in transfected cells
# T1 sequence (P30988 25-474): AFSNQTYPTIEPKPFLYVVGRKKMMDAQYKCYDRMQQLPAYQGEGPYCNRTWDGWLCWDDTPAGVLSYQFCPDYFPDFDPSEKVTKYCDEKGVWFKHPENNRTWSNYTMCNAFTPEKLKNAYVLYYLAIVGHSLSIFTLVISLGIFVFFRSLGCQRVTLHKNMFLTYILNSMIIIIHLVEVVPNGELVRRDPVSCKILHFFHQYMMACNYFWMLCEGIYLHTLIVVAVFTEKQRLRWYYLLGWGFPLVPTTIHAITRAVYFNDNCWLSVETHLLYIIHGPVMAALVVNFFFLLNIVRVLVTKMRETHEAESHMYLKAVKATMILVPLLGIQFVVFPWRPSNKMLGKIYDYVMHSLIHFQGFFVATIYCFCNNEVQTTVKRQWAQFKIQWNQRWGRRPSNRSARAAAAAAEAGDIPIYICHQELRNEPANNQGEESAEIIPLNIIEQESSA
# How it was run: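 Functional agonism is measured as cAMP accumulation in a COS7 line stably transfected with hCTR2, lacking endogenous RAMPs. Peptides act for 15 min at 37° C with IBMX present, and curves are fitted with a 4-parameter logistic model.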
# [2] = Solubility assessment (turbidity absorbance at 325 nm); type: physicochemical; settings: stock 2 mg/ml diluted 1:1, ambient temperature (typically 25°C), n=1; for Solubility, Acetate buffer pH 4: 100 mM acetate buffer pH 4.0; for Solubility, Acetate buffer pH 5: 100 mM acetate buffer pH 5.0; for Solubility, Histidine buffer pH 6: 100 mM histidine buffer pH 6.0; for Solubility, Histidine buffer pH 7: 100 mM histidine buffer pH 7.0; for Solubility, Phosphate buffer pH 6: 100 mM phosphate buffer pH 6.0; for Solubility, Phosphate buffer pH 7: 100 mM phosphate buffer pH 7.0; for Solubility, Phosphate buffer pH 7.5: 100 mM phosphate buffer pH7.5
# Description: A stock solution of the test peptide (2 mg/ml; determined from the weighed amount of peptide) in demineralized water adjusted to pH 2.5 with HCI was prepared, and aliquots were diluted 1:1 in 100 mM acetate buffer (pH 4.0 and pH 5.0), 100 mM histidine buffer (pH 6.0 and pH 7.0) and 100 mM phosphate buffer (pH 6.0, pH 7.0 and pH7.5), respectively, and loaded in a standard flat-bottom, non-sterile 96-well UV Microplate. The absorbance of samples (single samples, n=1) at 280 and 325 nm was measured in an absorbance-based plate reader, which was preheated to ambient temperature (typically 25°C). The turbidity absorbance criterion for a peptide solubility of ≥ 1 mg/ml was an absorbance at 325 nm of ≤ 0.02 absorbance units (which is 5 to 6 times the standard deviation of 8 buffer samples in a plate). Solubility data for peptides of the invention, pramlintide, and for a comparison pramlintide derivative denoted NN96 (see Example 5 below for details) are shown in Table 1, below. Table 1. Solubility data for compounds of the invention.
"EC50 ([1]; cAMP induction in COS7 cells expressing hCTR2, average of a minimum of 3 determinations, read-out: hCTR2 EC50)",SMILES,"Solubility, Acetate buffer pH 4 [2]","Solubility, Acetate buffer pH 5 [2]","Solubility, Histidine buffer pH 6 [2]","Solubility, Histidine buffer pH 7 [2]","Solubility, Phosphate buffer pH 6 [2]","Solubility, Phosphate buffer pH 7 [2]","Solubility, Phosphate buffer pH 7.5 [2]",EC50 [1]
1.3 nM,"CC[C@H](C)[C@@H](C(=O)N[C@@H](CC(C)C)C(=O)N[C@@H](CO)C(=O)N[C@@H](CO)C(=O)N[C@H](C(=O)N[C@@H](CC(N)=O)C(=O)N[C@H](C(=O)NCC(=O)N[C@@H](CO)C(=O)N[C@@H](Cc1c[nH]cn1)C(=O)N[C@H](C(=O)N[C@@H](Cc1ccc(O)cc1)C(N)=O)[C@@H](C)O)C(C)C)[C@@H](C)O)N(C)C(=O)CN(C)C(=O)[C@H](Cc1ccccc1)NC(=O)[C@H](CC(N)=O)NC(=O)[C@H](CC(N)=O)NC(=O)[C@H](CO)NC(=O)[C@H](CO)NC(=O)[C@H](Cc1c[nH]cn1)NC(=O)[C@H](Cc1c[nH]cn1)NC(=O)[C@H](CC(C)C)NC(=O)[C@H](Cc1ccccc1)NC(=O)[C@H](CCC(=O)O)NC(=O)[C@H](C)NC(=O)[C@H](CC(C)C)NC(=O)[C@H](CCCNC(=N)N)NC(=O)[C@H](CCC(N)=O)NC(=O)[C@@H](NC(=O)[C@H](C)NC(=O)[C@@H]1CSSC[C@H](NC(=O)[C@H](CCCCN)NC(=O)CC[C@H](NC(=O)CCCCCCCCCCCCCCCCCCC(=O)O)C(=O)O)C(=O)N[C@@H](CC(N)=O)C(=O)N[C@@H]([C@@H](C)O)C(=O)N[C@@H](C)C(=O)N[C@@H]([C@@H](C)O)C(=O)N1)[C@@H](C)O [Compound 4, [19CD]-isoGlu-KC()NTATC()ATQRLAEFLHHSSNNF-Gly(Me)-Ile(Me)-LSSTNVGSHTY-NH2] ({C20 diacid-γGlu}-KCNTATCATQRLAEFLHHSSNNF[Sar][NMeI]LSSTNVGSHTY-NH2; disulfide 2-7)",II (II indicates solubility ≤ 1 mg/ml),SS (SS indicates solubility ≥ 1mg/ml),II (II indicates solubility ≤ 1 mg/ml),II (II indicates solubility ≤ 1 mg/ml),II (II indicates solubility ≤ 1 mg/ml),II (II indicates solubility ≤ 1 mg/ml),II (II indicates solubility ≤ 1 mg/ml),–
–,"CC[C@H](C)[C@@H](C(=O)N[C@@H](CC(C)C)C(=O)N[C@@H](CO)C(=O)N[C@@H](CO)C(=O)N[C@H](C(=O)N[C@@H](CC(N)=O)C(=O)N[C@H](C(=O)NCC(=O)N[C@@H](CO)C(=O)N[C@@H](CC(N)=O)C(=O)N[C@H](C(=O)N1CCC[C@H]1C(N)=O)[C@@H](C)O)C(C)C)[C@@H](C)O)N(C)C(=O)[C@H](C)NC(=O)CN(C)C(=O)[C@H](Cc1ccccc1)NC(=O)[C@H](CC(N)=O)NC(=O)[C@H](CC(N)=O)NC(=O)[C@H](CO)NC(=O)[C@H](CO)NC(=O)[C@H](Cc1c[nH]cn1)NC(=O)[C@H](Cc1c[nH]cn1)NC(=O)[C@H](CC(C)C)NC(=O)[C@H](Cc1ccccc1)NC(=O)[C@H](CCC(=O)O)NC(=O)[C@H](C)NC(=O)[C@H](CC(C)C)NC(=O)[C@H](CCCNC(=N)N)NC(=O)[C@H](CCC(N)=O)NC(=O)[C@@H](NC(=O)[C@H](C)NC(=O)[C@@H]1CSSC[C@H](NC(=O)[C@H](C)NC(=O)CC[C@H](NC(=O)CCCCCCCCCCCCCCCCCCC(=O)O)C(=O)O)C(=O)N[C@@H](CC(N)=O)C(=O)N[C@@H]([C@@H](C)O)C(=O)N[C@@H](C)C(=O)N[C@@H]([C@@H](C)O)C(=O)N1)[C@@H](C)O [Compound 5, [19CD]-isoGlu-AC()NTATC()ATQRLAEFLHHSSNNF-Gly(Me)-A-Ile(Me)-LSSTNVGSNTP-NH2] ({C20 diacid-γGlu}-ACNTATCATQRLAEFLHHSSNNF[Sar]A[NMeI]LSSTNVGSNTP-NH2; disulfide 2-7)",SS (SS indicates solubility ≥ 1mg/ml),SS (SS indicates solubility ≥ 1mg/ml),SS (SS indicates solubility ≥ 1mg/ml),SS (SS indicates solubility ≥ 1mg/ml),SS (SS indicates solubility ≥ 1mg/ml),SS (SS indicates solubility ≥ 1mg/ml),SS (SS indicates solubility ≥ 1mg/ml),0.75 nM
–,"CC[C@H](C)[C@@H](C(=O)N[C@@H](CC(C)C)C(=O)N[C@@H](CO)C(=O)N[C@@H](CO)C(=O)N[C@H](C(=O)N[C@@H](CC(N)=O)C(=O)N[C@H](C(=O)NCC(=O)N[C@@H](CO)C(=O)N[C@@H](CC(N)=O)C(=O)N[C@H](C(=O)N1CCC[C@H]1C(N)=O)[C@@H](C)O)C(C)C)[C@@H](C)O)N(C)C(=O)CN(C)C(=O)[C@H](Cc1ccccc1)NC(=O)[C@H](CC(N)=O)NC(=O)[C@@H](CC(N)=O)NC(=O)[C@H](CO)NC(=O)[C@H](CO)NC(=O)[C@H](Cc1c[nH]cn1)NC(=O)[C@H](Cc1c[nH]cn1)NC(=O)[C@H](CC(C)C)NC(=O)[C@H](Cc1ccccc1)NC(=O)[C@H](CCC(=O)O)NC(=O)[C@H](C)NC(=O)[C@H](CC(C)C)NC(=O)[C@H](CCCNC(=N)N)NC(=O)[C@H](CCC(N)=O)NC(=O)[C@@H](NC(=O)[C@H](C)NC(=O)[C@@H]1CSSC[C@H](NC(=O)[C@H](CCCNC(=N)N)NC(=O)CC[C@H](NC(=O)CCCCCCCCCCCCCCCCCCC(=O)O)C(=O)O)C(=O)N[C@@H](CC(N)=O)C(=O)N[C@@H]([C@@H](C)O)C(=O)N[C@@H](C)C(=O)N[C@@H]([C@@H](C)O)C(=O)N1)[C@@H](C)O [Compound 35, [19CD]-isoGlu-RC()NTATC()ATQRLAEFLHHSS-DAsn-NF-Gly(Me)-Ile(Me)-LSSTNVGSNTP-NH2] ({C20 diacid-γGlu}-RCNTATCATQRLAEFLHHSS[dN]NF[Sar][NMeI]LSSTNVGSNTP-NH2; disulfide 2-7)",–,–,–,–,–,–,–,0.16 nM
–,"CC[C@H](C)[C@@H](C(=O)N[C@@H](CC(C)C)C(=O)N[C@@H](CO)C(=O)N[C@@H](CO)C(=O)N[C@H](C(=O)N[C@@H](CC(N)=O)C(=O)N[C@H](C(=O)NCC(=O)N[C@@H](CO)C(=O)N[C@@H](CC(N)=O)C(=O)N[C@H](C(=O)N1CCC[C@H]1C(N)=O)[C@@H](C)O)C(C)C)[C@@H](C)O)N(C)C(=O)[C@H](C)NC(=O)CN(C)C(=O)[C@H](Cc1ccccc1)NC(=O)[C@H](CC(N)=O)NC(=O)[C@H](CC(N)=O)NC(=O)[C@H](CO)NC(=O)[C@H](CO)NC(=O)[C@H](Cc1c[nH]cn1)NC(=O)[C@H](Cc1c[nH]cn1)NC(=O)[C@H](CC(C)C)NC(=O)[C@H](Cc1ccccc1)NC(=O)[C@H](CCC(=O)O)NC(=O)[C@H](C)NC(=O)[C@H](CC(C)C)NC(=O)[C@H](CCCNC(=N)N)NC(=O)[C@H](CCC(N)=O)NC(=O)[C@@H](NC(=O)[C@H](C)NC(=O)[C@@H]1CSSC[C@H](NC(=O)[C@H](CCCCNC(=N)N)NC(=O)CC[C@H](NC(=O)CCCCCCCCCCCCCCCCCCC(=O)O)C(=O)O)C(=O)N[C@@H](CC(N)=O)C(=O)N[C@@H]([C@@H](C)O)C(=O)N[C@@H](C)C(=O)N[C@@H]([C@@H](C)O)C(=O)N1)[C@@H](C)O [Compound 43, [19CD]-isoGlu-HarC()NTATC()ATQRLAEFLHHSSNNF-Gly(Me)-A-Ile(Me)-LSSTNVGSNTP-NH2] ({C20 diacid-γGlu}-[hArg]CNTATCATQRLAEFLHHSSNNF[Sar]A[NMeI]LSSTNVGSNTP-NH2; disulfide 2-7)",–,–,–,–,–,–,–,0.1 nM
